# Measured values from patent publication US20150051210A1, “Tyrosine Kinase Inhibitor Combinations and their Use” (Novartis AG, priority 2012, published 2015).
# Experiments:
# Format in all cases: cell-based
# [1] = tested on: RT-112 cells; test: RT-112 Dual Inhibition: reversal of rescue with selective inhibitors, CellTiter-Glo cell viability; conditions: RT-112, rhHGF or rhNRG-1 250 ng/ml, 96 h; BGJ398 100 nM, Cpd. A/Cpd. B 500 nM, Lapatinib 1.5 μM; FIG. 5, FIG. 6
# Description: RT-112 Secretome screen: The basic format was identical to the MKN-45 secretome screen with slight modifications. RT-112 cells were plated in EMEM+10% in white, tissue-culture treated 384-well plates at 1000 cells/20 μl/well and allowed to attach overnight. Supernatant from library-transfected HEK293T/17 cells was transferred as described above for the MKN-45 secretome screen. Purified proteins rhNRG1-31 and rhTGFα were added as positive controls, at a final concentration of 150 ng/ml. Following addition of supernatants and purified protein controls, BGJ398 diluted in DMEM was added at 10 μl/well for a final assay concentration of 100 nM. Cell viability was measured after 72 hours using CellTiter-Glo as described above. (FIG. 2)
# RT-112 Dual Inhibition: The format for the RT-112 dual inhibition experiment was similar to that described for MKN-45 with the following modifications. RT-112 cells were plated at 1000 cells/20 μl/well. Solutions of rhHGF and rhNRG-1 were added to achieve a final concentration of 250 ng/ml. Single and dual inhibition conditions were prepared as follows: BGJ398, Cpd. A, Cpd. B, Lapatinib, BGJ398 and Cpd. A, BGJ398 and Cpd. B, BGJ398 and Lapatinib. Final concentrations for each compound, whether single or combined, were as follows: 100nM for BGJ398, 500 nM for Cpd. A and Cpd. B, and 1.5 μM for Lapatinib. After 96 hours cell viability was measured by CellTiter-Glo as previously described. (FIG. 5, FIG. 6).
# [2] = tested on: phosphorylation of MET, ERK1/2, AKT, FRS2 in MKN-45; test: Western blots of protein phosphorylation in MKN-45 cells
# Description: (§1) Western Blots (Figures not Shown) MKN-45 and RT-112 cells were treated in 6-well plates for 2 hours and 18 hours in the presence or absence of purified protein (rhFGF7, rhNRG1-31, or rhHGF), and/or inhibitor (Cpd. B, Cpd. A, BGJ398). Following wash with ice-cold PBS, cells were lysed with RIPA buffer (Thermo) containing phosphatase (Thermo) and proteinase (Roche) inhibitor cocktails. Total protein was quantified by bicinchoninic protein assay (Pierce). Aliquots of 20 μg were resolved by electrophoresis on NuPAGE SDS-PAGE 4-12% BIS-Tris gels before transfer to nitrocellulose membranes. Membranes were blocked for one hour at room temperature before overnight incubation at 4° C. with the following primary antibodies (source rabbit, 1:1000 final dilution): anti-phospho-Akt (Ser473), anti-phospho-MET (Tyr1234/1235), anti-phospho-MAPK/ERK(1/2) (Thr202/Tyr204), anti-AKT, anti-MAPK/Erk(1/2), and anti-α/β-Tubulin . Anti-MET was probed at 1:800 final dilution An internal antibody was used for phospho-FRS2(Y346) (1:1500 dilution). Membranes were then washed 3 times in PBS+0.1% Tween before addition of secondary antibody, IRDye 680LT goat anti-rabbit IgG , dilution 1:15000. After one hour at room temperature, membranes were washed and bands were visualized using an Odyssey Infrared Imager.
# [3] = tested on: phosphorylation of MET, FRS2, ERK, AKT in RT-112; test: Western blots of protein phosphorylation in RT-112 cells
# Description: as §1
# [4] = tested on: MKN-45 cells; test: MKN-45 Dual Inhibition: reversal of rescue with selective inhibitors, CellTiter-Glo cell viability; conditions: for activity on cell viability (reversal of rescue): MET-dependent MKN-45, rhFGF7 or rhNRG-1 250 ng/ml, 96 h, Cpd. A/Cpd. B 100 nM, BGJ398 500 nM, Lapatinib 1.5 μM, FIG. 3, FIG. 4
# Description: MKN-45 Secretome screen: MKN-45 cells were plated in white, tissue-culture treated 384-well plates (Greiner) at 3000 cells/20 μl DMEM +10% FBS/well and allowed to attach overnight. Supernatant from library-transfected HEK293T/17 cells was then transferred to the MKN-45 cells at 30 μl/well using a Biomek FX liquid handler (Beckman Coulter) with pipetting speeds reduced to minimize disturbance of the HEK293T/17 monolayer. As positive controls, the purified proteins rhEGF and rhNRG1-31 (R&D Systems) were added to isolated wells on each plate for a final concentration of 150 ng/ml; supernatant from mock-transfected HEK293T/17 wells were transferred as neutral controls. Following addition of supernatants and purified protein controls, Cpd. A diluted in DMEM was added at 10 μl/well for a final assay concentration of 100 nM. After 96 hours incubation, growth was measured using the CellTiter-Glo luminescent cell viability assay system (Promega). In brief, 30 μl CellTiter-Glo reagent was added to all wells, then incubated for 15 minutes at room temperature before reading luminescence on a Viewlux plate reader (Perkin Elmer). (FIG. 1)
# MKN-45 Dual Inhibition: MKN-45 cells were seeded at 3000 cells/20 μl/well in 384-well plates and incubated overnight. Solutions of rhFGF7 and rhNRG-1 were prepared in DMEM+10%FBS, then added at 30 μl/well to achieve a final concentration of 250 ng/ml (one purified protein per treatment). The following single and dual inhibition treatments were prepared in DMEM and added at […]: Cpd. A, Cpd. B, BGJ398, Lapatinib, Cpd. A and BGJ398, Cpd. B and BGJ398, Cpd. A and Lapatinib, Cpd. B and Lapatinib. Final concentrations for each compound, whether single or combined, were as follows: 100 nM for Cpd. A and Cpd. B, 500 nM for BGJ398 and 1.5 μM for Lapatinib. After 96 hours cell viability was measured by CellTiter-Glo as previously described. (FIG. 3, FIG. 4)
# [5] = tested on: ERK and AKT phosphorylation in KYM-1, MG-63, Hs-683 cells; test: Western blots in KYM-1, MG-63 and Hs-683 cells (data not shown); conditions: 24 h
# Description: The indicated cell lines were seeded on 6-well-plates at a density of 500000 cells/well, left for 24 h to attach and then treated with a final concentration of 1 nM of the indicated compounds for another 24 h. Growth media were then removed, cells were washed twice with ice-cold PBS and lysed in 50 mmol/L Tris pH 7.5, 120 mmol/L NaCl, 20 mmol/L NaF, 1 mmol/L EDTA, 6 mmol/L EGTA, 1 mmol/L Benzamidin, 0.2 mmol/L PMSF, 100 mmol/L sodium vanadate, 1% NP-40. The protein concentration of cleared lysates was determined with the BCA Protein Assay Kit. 80 μg protein of each sample was separated by SDS-PAGE on NuPage 4-12% Tris-Bis Midi gels, transferred to a PVDF-membrane, and probed with antibodies as listed above. After washing and incubation with secondary HRP-linked antibodies, bands were visualized using ECL detection reagent.
Structure (SMILES),activity on cell viability (reversal of rescue) [1],"reversal of FGF7 rescue effect on FRS2 and ERK1/2 phosphorylation ([2]; MKN-45, MET inhibitor plus FGF7)","FRS2 and ERK phosphorylation ([3]; RT-112, absence of ligands)",activity on cell viability (reversal of rescue) [4],"reversal of ligand-mediated rescue of proliferation ([4]; MKN-45 in presence of MET inhibitor Cpd. A or Cpd. B, FIGS. 3, 4)",inhibition of own target as single agent (Western blot) [5],"effect on phosphorylation of several proteins (MET, ERK1/2, AKT, FRS2) ([2]; MKN-45, absence of added ligands)","prevention of HGF rescue of ERK phosphorylation ([3]; RT-112, BGJ398 plus HGF, simultaneous addition)","MET phosphorylation ([3]; RT-112, absence of ligands)"
"CCN1CCN(c2ccc(Nc3cc(N(C)C(=O)Nc4c(Cl)c(OC)cc(OC)c4Cl)ncn3)cc2)CC1 [BGJ398, 3-(2,6-dichloro-3,5-dimethoxy-phenyl)-1-{6-[4-(4-ethylpiperazin-1-yl)-phenylamino]-pyrimidin-4-yl}-1-methyl-urea]",active,reversed,reduced both FRS2 and ERK phosphorylation,not sufficient,selectively reverse rescue mediated by FGF7,effectively inhibited its own target,–,–,–
"CNC(=O)c1ccc(-c2cnc3ncc(Cc4ccc5ncccc5c4)n3n2)cc1F [Cpd. B, 2-fluoro-N-methyl-4-[(7-quinolin-6-yl-methyl)-imidazo[1,2-b]triazin-2-yl]benzamide]",not sufficient,–,–,active,–,effectively inhibited its own target,profound effect,prevented this rescue effect,specifically inhibited MET phosphorylation
